Patent US10976318B2, “Method of treating cancer using a caspase-4 inhibitor” (IMMUNEPHARMA S.R.L., priority 2014, dated 2021)
*: point of attachment. CH2Cl = ClC*

Tested on: lung tumor lesion in C57Bl/6 mice treated with NMU
Assay: Murine model of lung carcinoma induced by intratracheal NMU; tumor lesion area/total lung area
Format: in vivo, mouse
Conditions: C57Bl/6 mice exposed to NMU, caspase-1 inhibitor i.p.; *p<0.05, **p<0.01; FIG. 6C
Procedure: Murine Model of Lung Carcinoma.
C57Bl/6 mice (Harlan Laboratories, Italy) and 129Sv mice, and caspase-1 and 11 knockout mice (Charles River Laboratories, Italy) (females of 6-8 weeks) were subjected to intratracheal (i.t.) instillation of a carcinogen, N-nitroso-N-methyl-urea (NMU), having alkylating and mutagenic activities (Damiani et al., 2008). NMU was administered three times every 7 days, according to the following administration schedule and dosage: day 0, 50 μg/mouse; day 8, 10 μg/mouse and day 15, 10 μg/mouse (FIG. 1). In some experiments, an anti-IL-1α antibody (Ab) (2 μg/[…] i.p.; eBioscience, USA), or a caspase-1 inhibitor (Ac-Y-VAD-cmk: 10 ug/mouse i.p., Sigma Aldrich, USA), or an anti-caspase-11 antibody (10 ug/mouse, i.p.; Santa Cruz, USA) were administered to C57Bl/6 mice treated with NMU. The animals were sacrificed at different time points (3-7-30 days from the first NMU administration), according to the scheme shown in FIG. 1. The tumor lesion was expressed as the tumor lesion area/total lung area ratio. […]
The results are expressed as mean±SEM. The differences between the various groups were statistically analyzed using One Way ANOVA analysis and/or Student's t test, as appropriate. […]

| Substance | tumor lesion, effect in words |
| --- | --- |
| Ac-Tyr-Val-Ala-Asp-CHO (Ac-YVAD-aldehyde) [y-VAD-CHO, N. sc-3069] | reduced |
| Ac-Tyr-Val-Ala-Asp-Chloromethylketone (Ac-YVAD-CH2Cl) [Ac-Y-VAD-cmk, N. SML-0429] | reduced |
